# Test results as given in PMC3871589, “Evaluation of STAT3 Signaling in ALDH+ and ALDH+/CD44+/CD24− Subpopulations of Breast Cancer Cells” (PLoS ONE, 2013).
# Assays:
# [1] = tested on: ALDH+/CD44+/CD24− subpopulation of MDA-MB-231 and SUM159; experiment: Caspase-3 cleavage in ALDH+/CD44+/CD24− cells; type: cell-based, human; details: 0.5–5 µM
# Method: (§1) The ALDEFLUOR kit (StemCell Technologies) was used to isolate the population with high ALDH enzymatic activity as previously described. Briefly, cells were trypsinized to single cells using 0.05% trypsin and subsequently suspended in ALDEFLUOR assay buffer containing ALDH substrate (BAAA, 1 µmol/l per 1×10^6 cells) and then incubated for 40 minutes at 37°C. For each sample, an aliquot of cells was stained under identical conditions with 15 mmol/L diethylaminobenzaldehyde (DEAB), a specific ALDH inhibitor, as an ALDH^− control. Anti-human PE-CD24 and PE-Cy5-CD44 antibody (BioLegend) were used for CD44/CD24 identification and to separate ALDH^+/CD44^+/CD24^− and ALDH^−/CD44^+/CD24^+ cells when combined with ALDH staining. Analysis was performed using a FACStarPLUS (Becton Dickinion) flow cytometer. To assess the effect of STAT3 inhibitors on the subpopulation of ALDH^+ cells, un-separated breast cancer cells were treated with 5 µmol/L of LLL12 or 10 µmol/L Stattic for 24 hours prior to performing the ALDEFLUOR assay.
# (§2) After sorting by flow cytometry, ALDH^+ and ALDH^+/CD44^+/CD24^− stem-like cells were cultured in serum-free stem cell medium in ultra-low attachment six-well plates (Corning) to maintain cancer stem cell characteristics. […]
# [2] = tested on: ALDH+/CD44+/CD24− subpopulation of MDA-MB-231 and SUM159 breast cancer cells; experiment: Tumorsphere formation of ALDH+/CD44+/CD24− subpopulation; type: cell-based, human; details: Figure 5E
# Method: ALDH^+ and ALDH^+/CD44^+/CD24^− cells were plated as single cells in ultra-low attachment six-well plates at a density of 250, 500, 1000 or 50,000 viable cells/well as previously described. On the second day after seeding, the ALDH^+ cancer cells were treated with 2.5–10 µmol/L of LLL12 or Stattic. For tumorsphere forming capacity assay, ALDH^+ or ALDH^− cells were plated as single cells in ultra-low attachment six-well plates at a density of 250, 500 or 1000 viable cells/well. Tumorsphere growth was observed under a microscope 10 to 15 days later.
# EGFR = EGFR (Homo sapiens, UniProt P00533); experiment: Kinase profiler assay, EGFR; type: biochemical; details: bound stated jointly for the other protein kinases; Table S3
# Method: The effects of LLL12 on twenty six purified human protein kinases were performed at the Millipore UK Limited (Dundee, UK) and Reaction Biology Corp. (Malvern, PA) using the Kinase profiler assay. Assays contained a peptide substrate, purified recombinant human protein kinases to be tested, and gamma-labeled ATP, magnesiumion. Radioactive phosphorylated product was measured and quantitated via a scintillation counter.
# STAT3 target genes = experiment: RT-PCR of STAT3 downstream target genes in ALDH+ cells; type: cell-based, human; details: 5 µM, 24 h
# Method: The ALDH^+ and ALDH^+/CD44^+/CD24^− subpopulations of breast cancer cells were treated with LLL12 (5 µM) or DMSO for 24 h. RNA from the cells was then collected using RNeasy Kits (Qiagen). cDNA was constructed from a 500 ng sample of RNA using Omniscript RT (Qiagen). Primer sequences and source information can be found in Table S1. The intensity of bands was quantified and normalized to GAPDH.
# STAT3 = details: cited from earlier work
# [3] = tested on: MDA-MB-231 ALDH+ breast cancer stem-like cells; experiment: Mouse xenograft of MDA-MB-231 ALDH+ breast cancer stem-like cells; type: in vivo, NOD/SCID mice; details: 5 mg/kg IP daily
# Method: All animal studies were conducted in accordance with the principles and standard procedures approved by IACUC at the Research Institute at Nationwide Children’s Hospital and the University Committee on the Use and Care of Animals at the University of Michigan. ALDH^+ subpopulations of MDA-MB-231 and ALDH^+/CD44^+/CD24^− subpopulations of SUM-159 breast cancer cells (1×10^5) respectively were injected subcutaneous (s.c.) into the flank area of female Non-obese diabetic (NOD)/Severe combined immunodeficiency (SCID) mice which were purchased from Jackson Laboratory.
# STAT3 phosphorylation = experiment: Western blot of STAT3 phosphorylation in ALDH+/CD44+/CD24− cells; type: cell-based, human; details: ALDH+/CD44+/CD24− subpopulation of MDA-MB-231 and SUM159; 0.5–5 µM
# Method: as §1, §2
# [4] = tested on: STAT3 phosphorylation (Y705); experiment: Western blot of STAT3 phosphorylation in ALDH+ cells; type: cell-based, human; details: LLL12 5 µmol/L or Stattic 10 µmol/L 24 hours, ShRNA 48 hours then puromycin
# Method: as §1, §2
# [5] = tested on: STAT3 target genes Cyclin D1, survivin, Bcl-2 and Twist1; experiment: Expression of STAT3 target genes in un-separated breast cancer cells; type: cell-based, human; details: un-separated MDA-MB-231, SK-BR-3, SUM159 cells; 10 µM, 24 hours
# Method: LLL12 was synthesized in Dr. Pui-Kai Li’s laboratory (College of Pharmacy, The Ohio State University). Un-separated cells were treated with 10 µM of LLL12 or DMSO for 24 hours, and the phosphorylation of STAT3 (Y705), and ERK 1/2 (T202/Y204), and expression of STAT3 downstream genes, cleaved caspase-3, and PARP were detected by Western blots. (JPG) Click here for additional data file.
# Chain of EGFR (P00533 25-1210): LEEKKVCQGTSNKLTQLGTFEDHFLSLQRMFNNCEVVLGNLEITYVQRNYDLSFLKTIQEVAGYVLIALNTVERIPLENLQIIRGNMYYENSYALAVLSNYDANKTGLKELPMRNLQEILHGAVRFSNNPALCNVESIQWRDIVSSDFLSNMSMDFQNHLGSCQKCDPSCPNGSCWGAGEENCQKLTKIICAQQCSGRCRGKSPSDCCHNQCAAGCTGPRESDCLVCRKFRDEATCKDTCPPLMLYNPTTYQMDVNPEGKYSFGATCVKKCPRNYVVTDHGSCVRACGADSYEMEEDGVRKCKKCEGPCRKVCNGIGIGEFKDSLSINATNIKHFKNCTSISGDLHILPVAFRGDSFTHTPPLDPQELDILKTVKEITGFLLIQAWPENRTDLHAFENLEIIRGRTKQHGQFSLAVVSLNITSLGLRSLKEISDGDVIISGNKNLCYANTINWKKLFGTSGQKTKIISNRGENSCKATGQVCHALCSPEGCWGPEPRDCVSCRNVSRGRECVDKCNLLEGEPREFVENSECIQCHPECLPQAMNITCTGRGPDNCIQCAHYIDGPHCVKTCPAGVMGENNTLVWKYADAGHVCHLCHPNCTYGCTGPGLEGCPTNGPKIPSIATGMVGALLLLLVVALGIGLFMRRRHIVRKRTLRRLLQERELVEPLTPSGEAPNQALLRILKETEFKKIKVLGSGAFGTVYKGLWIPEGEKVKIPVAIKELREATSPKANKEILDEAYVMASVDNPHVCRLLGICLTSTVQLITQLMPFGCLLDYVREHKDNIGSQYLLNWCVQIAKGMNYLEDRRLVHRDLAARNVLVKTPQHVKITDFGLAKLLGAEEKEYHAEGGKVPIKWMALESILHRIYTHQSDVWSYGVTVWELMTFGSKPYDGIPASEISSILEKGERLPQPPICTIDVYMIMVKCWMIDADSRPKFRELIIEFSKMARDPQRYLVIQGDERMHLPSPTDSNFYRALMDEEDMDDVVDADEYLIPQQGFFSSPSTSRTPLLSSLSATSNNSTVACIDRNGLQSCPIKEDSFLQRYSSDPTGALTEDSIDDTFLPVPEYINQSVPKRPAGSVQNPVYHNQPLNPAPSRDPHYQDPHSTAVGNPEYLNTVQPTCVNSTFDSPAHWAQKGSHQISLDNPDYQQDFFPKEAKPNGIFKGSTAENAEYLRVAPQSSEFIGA
compound,measurement,setting,value
NS(=O)(=O)c1cccc2c1C(=O)c1cccc(O)c1C2=O [LLL12],caspase-3 cleavage,[1],induced caspase-3 cleavage
same,tumorsphere forming capacity,[2],inhibited
same,IC50,EGFR,≥ 77.9 µM
same,"expression of STAT3 target genes Cyclin D1, survivin, Bcl-2, Bcl-XL, MMP-2, and MMP-9",STAT3 target genes; ALDH+ breast cancer cells,down-regulated
same,"Twist1, Notch-1, and Notch-3 expression",STAT3 target genes; ALDH+ breast cancer stem-like cells,inhibited
same,STAT3 DNA binding activity,STAT3,inhibited
same,tumor volume,"[3]; 15 days, P<0.05 vs vehicle",significantly suppressed
same,tumor weight,"[3]; 15 days, P<0.05 vs vehicle",significantly suppressed
same,P-STAT3 in tumor tissue,[3]; Western blot of tumors,decreased
same,cleaved caspase-3 in tumor tissue,[3]; Western blot of tumors,increased
same,STAT3 phosphorylation,STAT3 phosphorylation,inhibited
same,STAT3 phosphorylation in ALDH+ cells,[4],inhibited
same,"expression of STAT3 target genes Cyclin D1, survivin, Bcl-2 and Twist1",[5],inhibited
